Patent EP0249394B1 (THE UNITED STATES OF AMERICA as represented by the …, priority 1986, dated 1993)

Tested on: T4 viral receptors
Assay: General statements: binding to T4 viral receptors / inhibition of gp 120 binding to brain membranes
Procedure: Radiolabeling of gp 120, Preparation of Brain Membranes, Binding and Crosslinking of gp120 to Receptor, and Immunoprecipitation of T4 Antigen. HTLV-IIIb isolate of HIV was propaged in H9 cells, and the gp120 was isolated by immunoaffinity chromatography and preparative NaDodSO₄/PAGE. Purified gp120 was labeled with ¹²⁵I by the chloramine-T method.
Fresh human, monkey, and rat hippocampus were quickly homogenized (Polytron, Brinkmann Instruments) in 100 vol of ice-cold 50 mM Hepes (pH 7.4). The membranes collected by centrifugation (15,000 x g) were washed in the original buffer volume and were used fresh or stored at -70°C. Before use, brain membranes and highly purified T cells (ref. 16; gift of Larry Wahl) were preincubated for 15-30 min in phosphate-buffered saline (PBS). Membranes derived from 2mg (initial wet weight) of brain (≈100µg of protein) were incubated with 28,000 cpm of ¹²⁵I-gp120 for 1 hr at 37°C in 200 µl (final volume) of 50 mM Hepes containing 0.1% bovine serum albumin and the peptidase inhibitors bacitracin (0.005%), aprotinin (0.005%), leupeptin (0.001%), and chymostatin (0.001%). Incubations were rapidly vacuum-filtered and counted to determine the receptor-bound material.

Substance: CYS-THR-THR-ASN-TYR-THR-CYS (CTTNYTC; printed: CYS-THR-THR-ASN-TYR-THR-CYS) [seven amino acid peptide]
- activity (test not specified): active
